Source: patent US20030125311A1, “Compounds capable of binding with the cytoskeleton” (priority 2002, published 2003)

Experiments:
fetal microtubules = fetal microtubules (Rattus norvegicus, UniProt P15146); experiment: Competition for PREG [3H] binding to fetal microtubules (RCR); conditions: PREG = 100
Experimental: (§1) In trials of competition between pregnenolone and different steroids for the binding studied, 0.2 ml of cytosol is incubated with 100 nM of PREG [^3H] and a 1-, 10-, 100-, and 1,000-fold excess of non-radioactive steroid.
(§2) The microtubules are prepared starting from calf brain or adult or fetal rat brain according to an assembly/disassembly method, as a function of the temperature, in vitro (12).
(§3) The relative competition index was determined as ratios of the concentrations of the competitor (in the […]) versus PREG causing a reduction of 50% of the specific binding of PREG [^3H]×100 (mean±standard error, n=3).
(§4) The binding of PREG [^3H] to microtubules prepared by polymerization/depolymerization cycles was determined.

MAP2-tubulin copolymers = MAP2-tubulin copolymers (Bos taurus, UniProt A0A3Q1NAK9); experiment: Competition for PREG [3H] binding to MAP2-tubulin copolymers (RCR); set-up: species or system calf; conditions: MAP2-tubulin copolymers; PREG = 100
Experimental: as §1, §3
(§5) Purified calf brain tubulin (90 μg/ml), MAP2 (45 μg/ml) or tau protein (25 μg/ml) is incubated with 100 nM of PREG [^3H], with or without a 1,000-fold excess of non-radioactive PREG.

[1] = molecular target: adult rat brain cytosol compound which binds PREG (Rattus norvegicus, UniProt P15146); experiment: Equilibrium binding of PREG to adult rat brain cytosol
Experimental: Adult male rat brains are collected after perfusion with PBS containing 2 IU/ml of heparin. The brains are weighed and homogenized with 4 vol. of homogenization buffer in Potter glass/Teflon® homogenizers, and centrifuged at 800 g for 10 min.
The supernatant is then centrifuged at 100,000 g for 1 h at 4° C. The samples are used immediately for the trials, or are stored in liquid nitrogen until the moment of their use.
Just before the binding trial, each sample is purified with a dextran-carbon suspension, and 2 ml samples of supernatant (purified cytosol) are added to a series of tubes containing 1 to 500 nM PREG [^3H], with or without unlabeled steroid in 1,000-fold excess.
The tubes are incubated at 45° C. for 30 min. The separation of bound and free steroid was carried out on a Sephadex LH-20® (Amersham Pharmacia Biotech) mini-column.
The counting of the radioactivity in the flasks was performed in a liquid scintillation spectrometer with attenuation correction (Tri-Carb 2100 TR®, Packard).

adult microtubules = adult microtubules (Rattus norvegicus, UniProt P15146); experiment: Binding of PREG [3H] to purified adult rat brain microtubules
Experimental: as §2, §4

[2] = molecular target: T1, microtubules reconstituted with purified tubulin and MAP2 (Bos taurus, UniProt A0A3Q1NAK9); experiment: Kinetics of assembling of microtubules (turbidity at 345 nm); format: biochemical, calf; conditions: 500 nM steroid, 37° C., 15 min
T1 construct: from tissue; host or cells: calf brain
Experimental: This assembling is measured by monitoring the increases of turbidity with a UVICON® spectrophotometer (Kontron Instruments, Montigny-le-Bretonneux, France)
The microtubules are reconstituted in vitro with purified tubulin (1 mg/ml) and MAP2 (0.05 mg/ml) in buffer A.
The increase of absorbance is measured at 345 nm, at 37° C. and recorded every 30 sec. for 15 min.
The assembling of microtubules is measured either in the absence of steroids (-⋄-); or in the presence of 500 nM of steroid: PREG (- -), progesterone (-X-), estradiol (-V-); or in the presence, at the same time, of PREG and progesterone (-∘-) or of PREG and estradiol (-Δ-) each at a concentration of 500 nM.

[3] = test system: rat brain cytosol binding sites of pregnenolone; experiment: Competition trials for PREG [3H] binding in brain cytosol; set-up: key to R.C.R. 50 (relative competition index): IC50(PREG)/IC50(competitor) ×100; PREG = 100; conditions: PREG = 100, 50% reduction of specific binding of 100 nM PREG [3H], mean±standard error, n=3
Experimental: as §1
To study the specificity of the binding of PREG [^3H], different steroids were used.
as §3

[4] = test system: purified calf brain tubulin; experiment: Saturable binding of PREG [3H] to purified tubulin; conditions: tubulin 90 μg/ml, 100 nM PREG [3H] ± 1,000-fold excess PREG
Experimental: The calf tubulin is purified according to the protocol of Weingarten et al. (13), but the step using phosphocellulose is replaced by a cation exchange column chromatography (Fractogel, Merck) (14). The microtubules and the tubulin are prepared in L buffer, supplemented with 1 mM of GTP (buffer A).
as §5

[5] = test system: calf brain tubulin assembled with calf brain MAP2; experiment: Electron microscopy of microtubules polymerized in the presence of PREG; format: biochemical; conditions: 500 nM of PREG
Experimental: After the polymerization of the microtubules induced by MAP2 in the absence or presence of the substance to be tested, an aliquot portion of the experimental sample is deposited on a hydrophilic grid (300 mesh) covered with carbon. The grids are treated with an aqueous solution of 1% uranyl acetate. Observations are performed with a Phllips CM12 electron microscope.
Analysis was performed of microtubules polymerized in the presence of PREG to verify their appearance.

tau protein = experiment: Saturable binding of PREG [3H] to purified tau protein; set-up: species or system calf; conditions: tau protein 25 μg/ml, 100 nM PREG [3H] ± 1,000-fold excess PREG
Experimental: The tau and MAP2 proteins are purified according to the protocol of Fellous et al. (12) by heat denaturation of the microtubules and gel filtration on a column, Sephacryl 300® being used instead of the Ultrogel ACA 34. The tau proteins are then Further purified according to the method of Lindwall and Cole (15).
as §5

MAP2-tubulin copolymers, sequence (A0A3Q1NAK9 1-1867): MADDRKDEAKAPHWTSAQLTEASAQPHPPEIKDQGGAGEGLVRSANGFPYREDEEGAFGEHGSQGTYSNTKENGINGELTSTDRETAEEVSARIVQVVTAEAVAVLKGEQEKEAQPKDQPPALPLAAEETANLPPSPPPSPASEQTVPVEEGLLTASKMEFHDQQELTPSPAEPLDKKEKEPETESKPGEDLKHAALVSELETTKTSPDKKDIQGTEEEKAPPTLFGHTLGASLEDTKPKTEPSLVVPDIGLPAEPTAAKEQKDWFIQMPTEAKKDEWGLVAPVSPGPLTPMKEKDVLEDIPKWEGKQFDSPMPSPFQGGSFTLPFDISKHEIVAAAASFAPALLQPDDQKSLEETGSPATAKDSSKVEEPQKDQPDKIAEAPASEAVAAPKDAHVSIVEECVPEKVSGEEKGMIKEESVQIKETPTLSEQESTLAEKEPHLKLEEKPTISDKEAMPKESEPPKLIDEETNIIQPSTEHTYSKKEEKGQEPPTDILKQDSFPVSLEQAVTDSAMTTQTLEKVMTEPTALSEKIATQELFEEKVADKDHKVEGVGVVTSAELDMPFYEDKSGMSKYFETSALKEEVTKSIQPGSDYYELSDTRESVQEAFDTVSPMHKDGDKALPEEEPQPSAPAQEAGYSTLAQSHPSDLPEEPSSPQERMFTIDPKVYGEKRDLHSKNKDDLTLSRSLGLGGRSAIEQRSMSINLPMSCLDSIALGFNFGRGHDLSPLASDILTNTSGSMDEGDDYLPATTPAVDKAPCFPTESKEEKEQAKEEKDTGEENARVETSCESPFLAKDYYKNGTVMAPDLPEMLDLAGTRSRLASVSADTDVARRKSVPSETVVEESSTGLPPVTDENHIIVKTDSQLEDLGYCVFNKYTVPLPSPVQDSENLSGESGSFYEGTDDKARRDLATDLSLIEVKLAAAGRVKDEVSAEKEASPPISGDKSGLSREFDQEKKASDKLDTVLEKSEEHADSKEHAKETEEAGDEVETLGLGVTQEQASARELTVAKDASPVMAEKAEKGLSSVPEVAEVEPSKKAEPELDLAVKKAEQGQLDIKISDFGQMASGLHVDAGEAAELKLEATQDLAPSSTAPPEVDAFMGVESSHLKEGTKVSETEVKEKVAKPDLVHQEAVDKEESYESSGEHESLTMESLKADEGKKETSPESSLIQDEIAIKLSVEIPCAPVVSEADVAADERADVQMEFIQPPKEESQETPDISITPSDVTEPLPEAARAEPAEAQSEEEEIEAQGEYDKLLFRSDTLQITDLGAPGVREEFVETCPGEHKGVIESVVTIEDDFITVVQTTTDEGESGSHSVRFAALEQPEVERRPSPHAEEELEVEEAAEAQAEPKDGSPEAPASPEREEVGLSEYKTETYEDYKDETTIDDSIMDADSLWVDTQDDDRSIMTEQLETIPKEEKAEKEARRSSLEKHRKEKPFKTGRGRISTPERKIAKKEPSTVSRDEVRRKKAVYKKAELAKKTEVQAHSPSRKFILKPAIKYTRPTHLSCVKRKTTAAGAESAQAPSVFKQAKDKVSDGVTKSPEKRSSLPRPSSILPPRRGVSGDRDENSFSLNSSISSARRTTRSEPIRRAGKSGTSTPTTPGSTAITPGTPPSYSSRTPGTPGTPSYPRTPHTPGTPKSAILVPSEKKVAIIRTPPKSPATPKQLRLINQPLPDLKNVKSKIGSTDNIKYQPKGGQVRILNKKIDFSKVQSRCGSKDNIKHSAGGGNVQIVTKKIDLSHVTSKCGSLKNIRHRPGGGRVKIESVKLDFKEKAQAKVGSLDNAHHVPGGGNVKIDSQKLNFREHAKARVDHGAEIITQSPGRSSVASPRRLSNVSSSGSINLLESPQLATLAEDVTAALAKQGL
T1 sequence (A0A3Q1NAK9 1-1867): as above
adult microtubules, sequence (Q3KRE8 whole entry): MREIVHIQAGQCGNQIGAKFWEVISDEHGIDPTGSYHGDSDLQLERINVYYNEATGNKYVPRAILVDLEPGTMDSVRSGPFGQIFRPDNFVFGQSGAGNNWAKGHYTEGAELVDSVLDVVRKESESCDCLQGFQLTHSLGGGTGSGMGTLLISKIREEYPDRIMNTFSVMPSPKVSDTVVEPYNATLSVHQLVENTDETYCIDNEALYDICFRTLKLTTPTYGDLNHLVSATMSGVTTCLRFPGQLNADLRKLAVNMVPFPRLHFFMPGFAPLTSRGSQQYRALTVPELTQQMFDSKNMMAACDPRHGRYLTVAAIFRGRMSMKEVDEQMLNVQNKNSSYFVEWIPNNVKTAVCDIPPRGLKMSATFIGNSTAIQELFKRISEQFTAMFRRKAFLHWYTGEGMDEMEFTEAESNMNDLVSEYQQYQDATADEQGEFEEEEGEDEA
adult microtubules, sequence (P68370 whole entry, further chain): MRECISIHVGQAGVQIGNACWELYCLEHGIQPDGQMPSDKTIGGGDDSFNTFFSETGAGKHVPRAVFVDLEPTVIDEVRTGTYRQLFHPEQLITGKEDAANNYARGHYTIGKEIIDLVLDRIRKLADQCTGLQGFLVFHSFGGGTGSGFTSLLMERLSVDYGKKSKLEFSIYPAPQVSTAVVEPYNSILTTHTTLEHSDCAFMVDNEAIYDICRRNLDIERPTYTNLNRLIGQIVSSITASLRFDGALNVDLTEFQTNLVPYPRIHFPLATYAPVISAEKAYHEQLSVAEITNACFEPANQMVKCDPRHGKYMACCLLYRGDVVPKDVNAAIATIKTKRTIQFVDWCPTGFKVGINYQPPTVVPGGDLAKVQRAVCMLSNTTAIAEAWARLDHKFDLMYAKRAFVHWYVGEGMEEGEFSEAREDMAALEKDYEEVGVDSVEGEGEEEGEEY
adult microtubules, sequence (P15146 whole entry): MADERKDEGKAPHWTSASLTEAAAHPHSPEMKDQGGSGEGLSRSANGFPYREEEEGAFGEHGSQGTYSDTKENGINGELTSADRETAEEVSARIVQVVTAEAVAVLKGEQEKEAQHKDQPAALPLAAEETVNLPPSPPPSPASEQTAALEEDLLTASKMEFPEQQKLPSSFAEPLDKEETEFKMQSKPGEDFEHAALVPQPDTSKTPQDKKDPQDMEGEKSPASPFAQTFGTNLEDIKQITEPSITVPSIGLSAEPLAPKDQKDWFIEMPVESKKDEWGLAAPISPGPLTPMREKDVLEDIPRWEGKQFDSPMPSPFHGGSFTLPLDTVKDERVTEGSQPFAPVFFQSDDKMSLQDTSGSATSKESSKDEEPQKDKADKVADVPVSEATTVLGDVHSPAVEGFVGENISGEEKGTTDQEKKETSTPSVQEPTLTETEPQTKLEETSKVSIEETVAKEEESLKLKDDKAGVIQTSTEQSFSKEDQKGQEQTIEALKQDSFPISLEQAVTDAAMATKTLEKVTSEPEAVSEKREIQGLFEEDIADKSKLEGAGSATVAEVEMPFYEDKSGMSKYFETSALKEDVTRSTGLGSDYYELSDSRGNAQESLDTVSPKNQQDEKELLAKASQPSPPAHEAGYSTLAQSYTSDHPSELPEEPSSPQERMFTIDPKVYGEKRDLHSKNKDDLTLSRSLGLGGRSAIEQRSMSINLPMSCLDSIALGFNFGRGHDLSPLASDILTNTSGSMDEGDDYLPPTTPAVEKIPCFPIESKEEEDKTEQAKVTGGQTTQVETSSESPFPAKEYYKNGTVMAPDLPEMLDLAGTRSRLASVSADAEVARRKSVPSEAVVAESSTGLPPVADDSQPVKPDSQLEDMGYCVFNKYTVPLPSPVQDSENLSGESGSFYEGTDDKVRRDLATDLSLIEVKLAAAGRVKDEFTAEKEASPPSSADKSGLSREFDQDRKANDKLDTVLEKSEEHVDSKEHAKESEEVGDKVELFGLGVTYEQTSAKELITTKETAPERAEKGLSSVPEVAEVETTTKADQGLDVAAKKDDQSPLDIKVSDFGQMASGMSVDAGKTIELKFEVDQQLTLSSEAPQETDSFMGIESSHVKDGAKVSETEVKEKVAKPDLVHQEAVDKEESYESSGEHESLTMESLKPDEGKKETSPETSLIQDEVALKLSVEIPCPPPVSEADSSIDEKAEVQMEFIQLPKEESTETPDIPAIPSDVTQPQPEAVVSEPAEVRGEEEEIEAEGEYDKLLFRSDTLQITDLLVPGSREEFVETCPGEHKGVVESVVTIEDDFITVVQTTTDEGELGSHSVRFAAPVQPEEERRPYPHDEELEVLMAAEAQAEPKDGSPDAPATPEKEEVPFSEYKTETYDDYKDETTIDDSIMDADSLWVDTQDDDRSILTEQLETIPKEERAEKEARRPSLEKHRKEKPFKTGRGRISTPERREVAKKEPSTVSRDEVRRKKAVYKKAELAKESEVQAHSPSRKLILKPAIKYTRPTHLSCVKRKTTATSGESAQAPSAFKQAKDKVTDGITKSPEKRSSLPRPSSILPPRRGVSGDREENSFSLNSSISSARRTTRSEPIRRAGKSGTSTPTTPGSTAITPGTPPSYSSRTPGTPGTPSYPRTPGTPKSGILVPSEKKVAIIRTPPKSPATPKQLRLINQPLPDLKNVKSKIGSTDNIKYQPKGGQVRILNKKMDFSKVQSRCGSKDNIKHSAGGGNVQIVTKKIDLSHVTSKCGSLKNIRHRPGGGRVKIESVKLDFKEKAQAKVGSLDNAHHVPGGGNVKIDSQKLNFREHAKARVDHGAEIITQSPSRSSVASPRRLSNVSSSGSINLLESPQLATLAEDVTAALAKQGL
fetal microtubules, sequence (P15146 whole entry): as above
adult rat brain cytosol compound which binds PREG, sequence (P15146 whole entry, the tested form may be a part): as the sequence (P15146 whole entry) above

RCR (fetal microtubules): 100
RCR (MAP2-tubulin copolymers): 100
Bmax [1]: 0.75 pmol/mg of protein
Bmax (adult microtubules): 3.4 pmol/mg of protein
R.C.R. 50 (relative competition index) [3]: 100
SMILES: CC(=O)C1CCC2C3CC=C4CC(O)CCC4(C)C3CCC12C (stereo not drawn) [Pregnenolone]
effect on assembling of microtubules (absorbance at 345 nm) [2]: induces a strong increase of both the speed and the extent of the assembling of the tubulin
saturable binding to tubulin [4]: neither tubulin, nor tau protein, nor rabbit IgG binds PREG [^3H] in a saturable manner
structure of the microtubules [5]: remains completely normal
saturable binding to tau protein (tau protein): neither tubulin, nor tau protein, nor rabbit IgG binds PREG [^3H] in a saturable manner
